ChEMBL document CHEMBL4024706 (Eur J Med Chem, 2017)

Legend:
[1] = molecular target: Cyclin-dependent kinase 19 (Homo sapiens) (UniProt Q9BWU1); assay: Inhibition of wild-type human partial length CDK11 (M1 to N360 residues) expressed in bacterial expression system assessed as residual activity at 1 uM by Kinomescan method relative to control
[2] = molecular target: Interferon-induced, double-stranded RNA-activated protein kinase (Homo sapiens) (UniProt P19525); assay: Inhibition of wild-type human partial length PRKR (F247 to C551 residues) expressed in bacterial expression system assessed as residual activity at 1 uM by Kinomescan method relative to control
[3] = molecular target: Receptor tyrosine-protein kinase erbB-3 (Homo sapiens) (UniProt P21860); assay: Inhibition of wild-type human partial length ERBB3 (G684 to A987 residues) expressed in mammalian expression system assessed as residual activity at 1 uM by Kinomescan method relative to control
[4] = molecular target: Ephrin type-A receptor 3 (Homo sapiens) (UniProt P29320); assay: Inhibition of wild-type human partial length EPHA3 (D604 to K889 residues) expressed in bacterial expression system assessed as residual activity at 1 uM by Kinomescan method relative to control
[5] = tested on: Hepatocyte growth factor receptor (Homo sapiens), P08581 [Y1235D]; assay: Inhibition of human partial length MET Y1235D mutant (D1010 to S1367 residues) expressed in bacterial expression system assessed as residual activity at 1 uM by Kinomescan method relative to control
[6] = molecular target: Cyclin-dependent kinase 9 (Homo sapiens) (UniProt P50750); assay: Inhibition of wild-type human full length CDK9 (M1 to F372 residues) expressed in bacterial expression system assessed as residual activity at 1 uM by Kinomescan method relative to control
[7] = molecular target: Serine/threonine-protein kinase SIK2 (Homo sapiens) (UniProt Q9H0K1); assay: Inhibition of wild-type human full length SIK2 (M1 to N926 residues) expressed in bacterial expression system assessed as residual activity at 1 uM by Kinomescan method relative to control
[8] = molecular target: Mitogen-activated protein kinase kinase kinase 4 (Homo sapiens) (UniProt Q9Y6R4); assay: Inhibition of wild-type human partial length MAP3K4 (G1319 to E1608 residues) expressed in bacterial expression system assessed as residual activity at 1 uM by Kinomescan method relative to control
[9] = molecular target: Tyrosine-protein kinase CSK (Homo sapiens) (UniProt P41240); assay: Inhibition of wild-type human full length CSK (M1 to L450 residues) expressed in bacterial expression system assessed as residual activity at 1 uM by Kinomescan method relative to control
[10] = molecular target: AP2-associated protein kinase 1 (Homo sapiens) (UniProt Q2M2I8); assay: Inhibition of human wild-type AAK1 (G25 to L333 residues) expressed in bacterial expression system assessed as residual activity at 1 uM by Kinomescan method relative to control
[11] = molecular target: Serine/threonine-protein kinase pim-1 (Homo sapiens) (UniProt P11309); assay: Inhibition of wild-type human partial length PIM1 (A15 to K313 residues) expressed in bacterial expression system assessed as residual activity at 1 uM by Kinomescan method relative to control
[12] = tested on: Tyrosine-protein kinase ABL1 (Homo sapiens), P00519 [F317L]; assay: Inhibition of human phosphorylated ABL1 F317L mutant (S229 to K512 residues) expressed in mammalian expression system assessed as residual activity at 1 uM by Kinomescan method relative to control
[13] = molecular target: RAC-gamma serine/threonine-protein kinase (Homo sapiens) (UniProt Q9Y243); assay: Inhibition of wild-type human partial length AKT3 expressed in bacterial expression system assessed as residual activity at 1 uM by Kinomescan method relative to control
[14] = molecular target: Serine/threonine-protein kinase Sgk2 (Homo sapiens) (UniProt Q9HBY8); assay: Inhibition of wild-type human partial length SGK2 (L54 to C427 residues) expressed in mammalian expression system assessed as residual activity at 1 uM by Kinomescan method relative to control
[15] = molecular target: Serine/threonine-protein kinase ULK1 (Homo sapiens) (UniProt O75385); assay: Inhibition of wild-type human partial length ULK1 (M1 to T309 residues) expressed in mammalian expression system assessed as residual activity at 1 uM by Kinomescan method relative to control
[16] = molecular target: Serine/threonine-protein kinase 38 (Homo sapiens) (UniProt Q15208); assay: Inhibition of wild-type human partial length NDR1 (N33 to E449 residues) expressed in mammalian expression system assessed as residual activity at 1 uM by Kinomescan method relative to control
[17] = molecular target: Tyrosine-protein kinase Blk (Homo sapiens) (UniProt P51451); assay: Inhibition of wild-type human partial length BLK (G211 to L503 residues) expressed in bacterial expression system assessed as residual activity at 1 uM by Kinomescan method relative to control
[18] = molecular target: Serine/threonine-protein kinase BRSK2 (Homo sapiens) (UniProt Q8IWQ3); assay: Inhibition of wild-type human full length BRSK2 (M1 to L674 residues) expressed in bacterial expression system assessed as residual activity at 1 uM by Kinomescan method relative to control
[19] = tested on: Receptor-type tyrosine-protein kinase FLT3 (Homo sapiens), P36888 [N841I]; assay: Inhibition of human partial length FLT3 N841I mutant (V592 to Y969 residues) expressed in bacterial expression system assessed as residual activity at 1 uM by Kinomescan method relative to control
[20] = molecular target: Serine/threonine-protein kinase pim-2 (Homo sapiens) (UniProt Q9P1W9); assay: Inhibition of wild-type human partial length PIM2 (M1 to E291 residues) expressed in bacterial expression system assessed as residual activity at 1 uM by Kinomescan method relative to control
[21] = molecular target: Cyclin-dependent kinase 3 (Homo sapiens) (UniProt Q00526); assay: Inhibition of wild-type human full length CDK3 (M1 to H305 residues) expressed in bacterial expression system assessed as residual activity at 1 uM by Kinomescan method relative to control
[22] = Elimination half-life in Sprague-Dawley rat at 1 mg/kg, iv by LC-MS/MS method; format: ADME, organism-based; conditions: in vivo, read-out: beta t1/2 (converted)
[23] = tested on: Phosphatidylinositol 4,5-bisphosphate 3-kinase catalytic subunit alpha isoform (Homo sapiens), P42336 [C420R]; assay: Inhibition of human partial length PIK3CA C420R mutant (R108 to N1068 residues) expressed in mammalian expression system assessed as residual activity at 1 uM by Kinomescan method relative to control
[24] = tested on: Mast/stem cell growth factor receptor Kit (Homo sapiens), P10721 [V559D,T670I]; assay: Inhibition of human partial length KIT V559D/T670I double mutant (Y545 to D952 residues) expressed in bacterial expression system assessed as residual activity at 1 uM by Kinomescan method relative to control
[25] = molecular target: Serine/threonine-protein kinase WNK4 (Homo sapiens) (UniProt Q96J92); assay: Inhibition of wild-type human partial length WNK4 (A31 to D461 residues) expressed in mammalian expression system assessed as residual activity at 1 uM by Kinomescan method relative to control

C=CC(=O)Nc1cc(Nc2cc(-c3cccc(NC(=O)c4ccc(C(C)(C)C)cc4)c3C)cn(C)c2=O)ccc1C(=O)N1CCOCC1
Activity [1]: 100%
Activity [2]: 100%
Activity [3]: 88%
Activity [4]: 95%
Activity [5]: 89%
Activity [6]: 99%
Activity [7]: 87%
Activity [8]: 89%
Activity [9]: 100%
Activity [10]: 96%
Activity [11]: 100%
Activity [12]: 97%
Activity [13]: 95%
Activity [14]: 93%
Activity [15]: 100%
Activity [16]: 93%
Activity [17]: 82%
Activity [18]: 92%
Activity [19]: 100%
Activity [20]: 90%
Activity [21]: 97%
half-life [22]: 13.8 min
Activity [23]: 100%
Activity [24]: 96%
Activity [25]: 100%
